{"source": "patent US20080188457A1", "about": "“Modulation of Neurogenesis with Biguanides and GSK3-beta Agents” (BrainCells, Inc., priority 2007, published 2008)", "origin": "cited, not measured here", "key": {"mGluR2": {"target": "mGluR2 (Homo sapiens, UniProt Q14416)", "sequence (Q14416 19-872)": "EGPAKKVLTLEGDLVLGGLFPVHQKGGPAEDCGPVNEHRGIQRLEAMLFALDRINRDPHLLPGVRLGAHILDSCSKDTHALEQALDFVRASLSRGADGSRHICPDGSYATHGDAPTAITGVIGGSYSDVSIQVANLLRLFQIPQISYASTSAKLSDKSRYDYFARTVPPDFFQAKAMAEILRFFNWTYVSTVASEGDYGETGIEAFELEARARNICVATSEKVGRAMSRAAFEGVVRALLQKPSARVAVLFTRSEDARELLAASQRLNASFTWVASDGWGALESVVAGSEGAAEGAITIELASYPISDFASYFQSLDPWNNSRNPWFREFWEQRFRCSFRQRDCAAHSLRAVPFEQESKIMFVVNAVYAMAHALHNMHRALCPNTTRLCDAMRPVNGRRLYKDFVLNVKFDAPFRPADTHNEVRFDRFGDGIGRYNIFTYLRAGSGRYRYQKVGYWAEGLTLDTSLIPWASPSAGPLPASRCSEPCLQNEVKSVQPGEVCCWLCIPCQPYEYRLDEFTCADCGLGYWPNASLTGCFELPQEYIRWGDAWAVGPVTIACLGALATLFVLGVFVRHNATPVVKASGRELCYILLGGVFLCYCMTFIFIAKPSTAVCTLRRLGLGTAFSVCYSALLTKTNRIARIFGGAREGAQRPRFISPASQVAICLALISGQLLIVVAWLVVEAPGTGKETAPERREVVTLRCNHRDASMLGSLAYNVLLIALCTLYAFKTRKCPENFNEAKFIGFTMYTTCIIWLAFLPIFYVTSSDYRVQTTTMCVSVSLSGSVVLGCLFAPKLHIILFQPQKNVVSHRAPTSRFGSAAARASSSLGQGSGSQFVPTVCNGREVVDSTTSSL"}, "mGluR3": {"target": "mGluR3 (Homo sapiens, UniProt Q14832)", "sequence (Q14832 23-879)": "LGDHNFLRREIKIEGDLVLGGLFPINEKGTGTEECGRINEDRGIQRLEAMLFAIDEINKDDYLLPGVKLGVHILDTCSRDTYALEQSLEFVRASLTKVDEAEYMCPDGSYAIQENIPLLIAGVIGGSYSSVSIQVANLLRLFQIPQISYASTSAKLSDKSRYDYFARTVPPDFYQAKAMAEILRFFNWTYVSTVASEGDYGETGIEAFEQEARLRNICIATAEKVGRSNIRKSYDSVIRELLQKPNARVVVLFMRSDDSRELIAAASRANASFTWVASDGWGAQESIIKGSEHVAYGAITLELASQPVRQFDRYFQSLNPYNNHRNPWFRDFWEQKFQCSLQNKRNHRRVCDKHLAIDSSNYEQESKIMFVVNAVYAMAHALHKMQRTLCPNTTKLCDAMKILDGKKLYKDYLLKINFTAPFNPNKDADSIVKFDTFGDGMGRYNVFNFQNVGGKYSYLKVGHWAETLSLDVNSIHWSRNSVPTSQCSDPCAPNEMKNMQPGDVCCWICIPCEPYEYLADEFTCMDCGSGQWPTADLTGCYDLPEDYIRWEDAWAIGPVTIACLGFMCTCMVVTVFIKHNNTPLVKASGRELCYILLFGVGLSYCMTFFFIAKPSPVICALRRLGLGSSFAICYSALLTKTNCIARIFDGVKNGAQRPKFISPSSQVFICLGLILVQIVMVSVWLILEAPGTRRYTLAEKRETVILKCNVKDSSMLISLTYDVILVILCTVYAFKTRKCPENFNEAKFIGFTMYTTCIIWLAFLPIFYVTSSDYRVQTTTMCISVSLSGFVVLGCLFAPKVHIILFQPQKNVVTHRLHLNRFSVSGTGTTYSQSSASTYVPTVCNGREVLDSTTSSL"}, "[1]": {"tested_on": "Group I or Group III receptors", "settings": "at sub-mM concentrations"}, "[2]": {"tested_on": "KA, AMPA, and NMDA iGlu receptors"}, "human mGlu2 receptor": {"target": "human mGlu2 receptor (Homo sapiens, UniProt Q14416)", "sequence (Q14416 19-872)": "as the sequence (Q14416 19-872) above", "settings": "in vitro; low nanomolar range"}, "human mGlu3 receptor": {"target": "human mGlu3 receptor (Homo sapiens, UniProt Q14832)", "sequence (Q14832 23-879)": "as the sequence (Q14832 23-879) above", "settings": "in vitro; low nanomolar range"}, "gluconeogenesis": {"tested_on": "gluconeogenesis", "settings": "person with type 2 diabetes"}}}
{"compound": "NC1(C(=O)O)CCc2cc(P(=O)(O)O)ccc21", "note": "(racemic) [APICA, (RS)-1-amino-5-phosphonoindan-1-carboxylic acid]", "values": [{"measurement": "IC50", "setting": "mGluR2", "value": "~30", "unit": "µM"}, {"measurement": "IC50", "setting": "mGluR3", "value": "~30", "unit": "µM"}, {"measurement": "activity against Group I or Group III receptors", "setting": "[1]", "value": "no appreciable activity"}]}
{"compound": "N[C@](CC1c2ccccc2Oc2ccccc21)(C(=O)O)[C@H]1C[C@@H]1C(=O)O", "note": "[LY341495, (2S)-2-amino-2-(1S,2S-2-carboxycycloprop-1-yl)-3-(xanth-9-yl) propanoic acid]", "values": [{"measurement": "activity against KA, AMPA, and NMDA iGlu receptors", "setting": "[2]", "value": "substantially inactive"}]}
{"compound": "N[C@@]1(C(=O)O)CO[C@H]2[C@H](C(=O)O)[C@H]21", "note": "[LY379268, (−)-2-Oxa-4-aminobicyclohexane-4,6-dicarboxylic acid]", "values": [{"measurement": "EC50", "setting": "human mGlu2 receptor", "value": "< 0.01", "unit": "µM"}, {"measurement": "EC50", "setting": "human mGlu3 receptor", "value": "< 0.01", "unit": "µM"}]}
{"compound": "CN(C)C(=N)NC(=N)N", "note": "[metformin, 1,1-Dimethylbiguanide]", "values": [{"measurement": "reduction of the rate of gluconeogenesis", "setting": "gluconeogenesis", "value": "over one third"}]}
